Values joined by “and” are separate entries in the source; they are usually repeats but may differ in a detail not shown here. Identical values can stand only once. Marks after values point to notes of the source that are not given here.
Assays:
[1] = system: Plasmodium berghei, ANKA strain; assay: Antimalarial efficacy of a single oral dose of trioxane (8 mg/kg) combined with mefloquine hydrochloride (24 mg/kg) in Plasmodium berghei-infected mice (Table 3); format: in vivo; details: single oral dose 8 mg/kg trioxane + 24 mg/kg mefloquine hydrochloride; for Average Survival (days) After Infection: 3 mice, experiment stopped on day 57
Protocol: (§1) Each trioxane silylamide 14a, 14b, and 16 (0.90 mg) was dissolved in 0.11 mL of 7:3 Tween 80:ethanol and then diluted with 1.10 mL of water for oral administration to 5-week old C57BU6J male mice (from the Jackson Laboratory) weighing 18-19 grams that were infected intraperitoneally on day 0 with the Plasmodium berghei, ANKA strain (2×10^7 parasitized erythrocytes). Woodard et al., 2009. Each of 3 mice in a group was treated orally 24 hours post-infection with a single dose of 0.20 mL (0.20 mL/1.21 mL×0.9 mg=0.15 mg) of diluted compound solution, corresponding to a dose of 8 mg/kg, combined with 24 mg/kg of mefloquine hydrochloride. Determining blood parasitemia levels, as well as monitoring the duration of animal survival compared to survival time of animals receiving no drug, are both widely accepted as measures of a drug's efficacy in antimalarial drug development. […] Animals infected but receiving no drug died on an average of 15 days post-infection. A widely accepted yardstick of cure (i.e., 100% efficacy) is survival of animals to at least day 30 post-infection, with no detectable malaria parasites in the animal's blood at that time.

[2] = Overt toxicity, behavioral change and body weight in treated malaria-infected mice (silylamide study); format: in vivo; details: malaria-infected animals cured by trioxane plus mefloquine hydrochloride
Protocol: as §1

[3] = system: Plasmodium berghei, ANKA strain; assay: Antimalarial efficacy of a single oral dose of trioxane combined with mefloquine hydrochloride in Plasmodium berghei-infected mice (Table 1); format: in vivo
Protocol: (§2) Each trioxane 2b, 3, 4a, and 4b (0.90 mg) was dissolved in 0.11 mL of 7:3 Tween 80:ethanol and then diluted with 1.10 mL of water for oral administration to 5-week old C57BL/6J male mice (from the Jackson Laboratory) weighing about 22 g that were infected intraperitoneally on day 0 with the Plasmodium berghei, ANKA strain (2×10^7 parasitized erythrocytes). Chen et al., 2006.
(§3) Each of five mice in a group was treated orally 24 h post-infection with a single dose of 0.20 mL (0.20 mL/1.21 mL×0.9 mg=0.15 mg) of diluted compound solution, corresponding to a dose of 6.8 mg/kg, combined with 20 mg/kg of mefloquine hydrochloride. Determining blood parasitemia levels, as well as monitoring the duration of animal survival compared to survival time of animals receiving no drug, are both widely accepted as measures of a drug's efficacy in antimalarial drug development. […] Animals receiving no drug died on days 6-7 post-infection. A widely accepted yardstick of cure (i.e., 100% efficacy) is survival of animals to day 30 post-infection, with no detectable malaria parasites in the animal's blood at that time.
Average survival results are summarized in Table 1, including single oral doses of 13 mg/kg of trioxane combined with 13 mg/kg of mefloquine hydrochloride. The clinically used monomeric water-soluble trioxane drug 2c and the synthetic trioxolane peroxide drug development candidate OZ277 (9) maleate are included as monotherapy reference compounds.

[4] = system: Plasmodium berghei, ANKA malaria strain; assay: Antimalarial efficacy of a single oral dose (7.1 mg/kg) of trioxane combined with mefloquine hydrochloride (21 mg/kg) in Plasmodium berghei-infected mice (Table 2); format: in vivo
Protocol: (§4) Each trioxane dimer 12a-12c (0.90 mg) was dissolved in 0.11 mL of 7:3 Tween 80:ethanol and then diluted with 1.10 mL of distilled water for oral administration to 5-week-old C57BL/6J male mice (Jackson Laboratory) weighing about 21 g that were infected ip on day 0 with the Plasmodium berghei, ANKA malaria strain (2×10^7 parasitized erythrocytes) [Chen et al., 2006]. Each of five mice in a group was treated orally 24 h post-infection with a single dose of 0.20 mL (0.20 mL/1.21 mL×0.9 mg=0.15 mg) of diluted compound solution, corresponding to a dose of 7.1 mg/kg, combined with 21 mg/kg of mefloquine hydrochloride. Both determining blood parasitemia levels, as well as monitoring the duration of animal survival compared with survival time of infected animals receiving no drug, are widely accepted measures of drug efficacy in antimalarial drug development. […] The average survival time of the animals receiving no drug was 15.8 days post-infection. […] Widely accepted indications of complete cure (i.e. 100% efficacy) are survival of animals to day 30 post-infection with no detectable malaria parasites in the animal's blood at that time.

[5] = Overt toxicity, behavioral change and body weight in treated malaria-infected mice (dimer ester study); format: in vivo; details: 7.1 mg/kg trioxane + 21 mg/kg mefloquine hydrochloride, mice surviving 30 days
Protocol: as §4

Plasmodium berghei = details: monotherapy, single oral dose 30 mg/kg; data from Vennerstrom et al.; cited from earlier work
[6] = Thermal stability in the absence of solvent (1H NMR); format: physicochemical; details: neat solid
Excerpt: Referring now to Scheme 3, C-10 acetate 2d was converted into C-10-allyl derivative 7 and then, via hydroboration followed by oxidation, into monomeric trioxane carboxylic acid 8. Jung et al, 2003. Monomeric trioxane carboxylic acid 8 can be transformed in one step directly into a diverse library of monomeric trioxane amides. Jung et al, 2003. For example, one-step amidation of carboxylic acid 8 produced trioxane fluoroaryl amide 4a, a monomeric version of dimer fluoroaryl amide 3 (Scheme 3). In the same way, monomer trioxane fluoroanilide 4b was prepared directly and in good yield from carboxylic acid 8 (Scheme 3). The overall yield of 4b is approximately 48% from natural trioxane 1, and scale up to multigram or even kilogram amounts is expected to be straightforward. […]
Referring once again to Scheme 4, dihydroartemisinin acetate 2d, prepared from natural trioxane 1 in near quantitative yield, Posner et al., 2003, underwent tin-promoted dimerization, Posner et al., 2003, with bis-allylic silane 10, Bigot and Breit, 2008, to form pure C-10b, C10b-trioxane dimer alcohol 11 in 59% yield. […] Each of benzoate esters 12a-12c in the absence of solvent is thermally stable at the elevated temperature of 60° C. for at least 1 week and at 70° C. for at least 24 h, with less than 5% decomposition detected by ^1H NMR spectroscopy. […]

[7] = Overt toxicity and behavioral change in treated malaria-infected mice (fluoroaryl amide study); format: in vivo; details: malaria-infected animals cured by trioxane plus mefloquine hydrochloride
Protocol: as §2, §3

[8] = system: Plasmodium berghei, ANKA strain; assay: Antimalarial efficacy of a single oral dose of trioxane (8 mg/kg) combined with mefloquine hydrochloride (24 mg/kg) in Plasmodium berghei-infected mice (Table 3); format: in vivo; details: mefloquine hydrochloride alone, single oral dose 22 mg/kg
P388 leukemia = details: NCI Report on NSC 369397, 25 Oct. 1983; cited from earlier work
[9] = system: 60 cancer cell lines (leukemia, non-small-cell lung, colon, CNS, melanoma, ovarian, renal, prostate, breast); details: cited from earlier work
[10] = single oral dose 6.8 mg/kg trioxane + 20 mg/kg mefloquine hydrochloride
[11] = single oral dose 6.8 mg/kg trioxane + 20 mg/kg mefloquine hydrochloride, 24 h post-infection, C57BL/6J mice
[12] = single oral dose 13 mg/kg trioxane + 13 mg/kg mefloquine hydrochloride
[13] = mefloquine hydrochloride alone, single oral dose 21 mg/kg
[14] = mefloquine hydrochloride alone, single oral dose 20 mg/kg

C[C@H]1[C@@H](CC(C[C@H]2O[C@@H]3O[C@]4(C)CC[C@H]5[C@H](C)CC[C@@H]([C@H]2C)[C@@]35OO4)C(=O)NC[Si](C)(C)C)O[C@@H]2O[C@]3(C)CC[C@H]4[C@H](C)CC[C@@H]1[C@@]24OO3 (stereo partly shown) [compound 16]
% Suppression of Parasitemia (on day 3 post-infection) [1]: >99.5%
parasites in the blood of the surviving mice on day 57 [1]: no parasites were detected
Average Survival (days) After Infection [1]: >57 days
overt toxicity or behavioral change attributable to trioxane drug administration [2]: Neither overt toxicity nor behavioral change

C[C@H]1[C@@H](CC(C[C@H]2O[C@@H]3O[C@]4(C)CC[C@H]5[C@H](C)CC[C@@H]([C@H]2C)[C@@]35OO4)C(=O)NCc2ccc(F)cc2)O[C@@H]2O[C@]3(C)CC[C@H]4[C@H](C)CC[C@@H]1[C@@]24OO3 (stereo partly shown) [compound 3, Trioxane Dimer Fluoroaryl Amide]
% Suppression of Parasitemia (on day 3 post-infection) [3, 10]: 99.5%
Average Survival (days) After Infection [3, 11]: 27.4 (22, 25, days
% Suppression of Parasitemia (on day 3 post-infection) [3, 12]: 99.9%
Average Survival (days) After Infection [3, 12]: 24.6 (17, 21, days

CO[C@H]1O[C@@H]2O[C@@]3(C)CC[C@H]4[C@H](C)CC[C@@H]([C@H]1C)[C@@]24OO3 [2b, artemether, reference compound]
survival after infection (all mice) ([4]; 7.1 mg/kg trioxane + 21 mg/kg mefloquine hydrochloride): 30 days
No. of mice parasite free (day 30) ([4]; single oral dose 7.1 mg/kg trioxane + 21 mg/kg mefloquine hydrochloride, five mice): 4
% parasitemia on day 30% ([4]; single oral dose 7.1 mg/kg trioxane + 21 mg/kg mefloquine hydrochloride, number of parasitemic mice in brackets): 1.6 (1 mouse) %
% Suppression of Parasitemia (on day 3 post-infection) [3, 10]: 99.8%
Average Survival (days) After Infection [3, 11]: 19.8 days and 19.8 (16, 17, days
% Suppression of Parasitemia (on day 3 post-infection) [3, 12]: 99.7%
Average Survival (days) After Infection [3, 12]: 19.6 (16, 17, days
weight gain [5]: 10-20%

C[C@H]1[C@@H](CCC(=O)NC[Si](C)(C)C)O[C@@H]2O[C@]3(C)CC[C@H]4[C@H](C)CC[C@@H]1[C@@]24OO3 [14a]
% Suppression of Parasitemia (on day 3 post-infection) [1]: >99.5%
parasites in the blood of the surviving mice on day 57 [1]: no parasites were detected
Average Survival (days) After Infection [1]: >57 days
overt toxicity or behavioral change attributable to trioxane drug administration [2]: Neither overt toxicity nor behavioral change

CC(C)(N)CNC(=O)C[C@H]1CC[C@]2(CC1)OO[C@]1(O2)C2CC3CC(C2)CC1C3 [compound 9]
% Suppression of Parasitemia (on day 3 post-infection) (Plasmodium berghei): 99.95^b %

C[C@H]1[C@@H](CCC(=O)Nc2ccc(F)cc2)O[C@@H]2O[C@]3(C)CC[C@H]4[C@H](C)CC[C@@H]1[C@@]24OO3 [4b, Trioxane Monomer Fluoroanilide]
stable in the absence of solvent at 60° C. ([6]; 60° C.): at least 7 days
stable in the absence of solvent at 70° C. ([6]; 70° C.): at least 1 day
blood parasitemia of the one mouse not cured, day 30 ([3]; 6.8 mg/kg trioxane + 20 mg/kg mefloquine hydrochloride): 4%
mice completely cured (no parasites in their blood) on day 30 post-infection ([3]; 6.8 mg/kg trioxane + 20 mg/kg mefloquine hydrochloride, five mice): 80%
blood parasitemia of the one mouse not cured, day 30 ([3]; 13 mg/kg trioxane + 13 mg/kg mefloquine hydrochloride): 2%
mice cured (day 30) ([3]; 13 mg/kg trioxane + 13 mg/kg mefloquine hydrochloride, five mice): four
% Suppression of Parasitemia (on day 3 post-infection) ([3]; monotherapy, single oral dose 72 mg/kg trioxane, no mefloquine): 99.0%
Average Survival (days) After Infection ([3]; monotherapy, single oral dose 72 mg/kg trioxane, no mefloquine, 72 mg/kg): 24.4 days and 24.4 (21, 23, days
extended survival time after reinfection, longer than average survival of a newly infected control group ([3]; reinfection of the four cured mice on day 32 after the original infection): approximately four
% Suppression of Parasitemia (on day 3 post-infection) [3, 10]: 99.0%
% Suppression of Parasitemia (on day 3 post-infection) [3, 12]: 99.6%
Average Survival (days) After Infection [3, 12]: 30 days
overt toxicity or behavioral change attributable to trioxane drug administration [7]: Neither overt toxicity nor behavioral change

Cl.OC(c1cc(C(F)(F)F)nc2c(C(F)(F)F)cccc12)C1CCCCN1 (stereo not shown) [Mefloquine, mefloquine hydrochloride, reference compound]
No. of mice parasite free (day 30) [4, 13]: 1
suppression of parasitemia (day 3) [4, 13]: 91.5%
% parasitemia on day 30% ([4]; mefloquine hydrochloride alone, single oral dose 21 mg/kg, average of 4 mice, hydrochloride, 21 mg/kg): 25 (4 mice) %
% parasitemia on day 30% ([4]; mefloquine hydrochloride alone, single oral dose 21 mg/kg, average of 4 mice, listed as mefloquine hydrochloride, hydrochloride, 21 mg/kg): 25%
cure of malaria-infected mice [8]: not curative
% Suppression of Parasitemia (on day 3 post-infection) [3, 14]: 99.6%
Average Survival (days) After Infection [3, 14]: 17.6 days

C[C@@H]1CC[C@H]2[C@@H](C)C(=O)O[C@@H]3O[C@@]4(C)CC[C@@H]1[C@]32OO4 [artemisinin]
activity against P388 leukemia (P388 leukemia): inactive
anticancer activity in 60 cell line panel [9]: modest anticancer activity

C[C@H]1[C@@H](CCC(=O)NCCC[Si](C)(C)C)O[C@@H]2O[C@]3(C)CC[C@H]4[C@H](C)CC[C@@H]1[C@@]24OO3 [14b]
% Suppression of Parasitemia (on day 3 post-infection) [1]: >99.5%
parasites in the blood of the surviving mice on day 57 [1]: ^aOne mouse died on day 17; the other two mice in this group showed no parasitemia on day 57.
Average Survival (days) After Infection [1]: 44^a days
